Test results as given in patent US7465814B2, “Sulfonate compound and fluorescent probe using the same” (priority 2003, dated 2008).

Assays:
[1] = Fluorescent response to diethylamine (Table 1); format: biochemical; details: relative fluorescence intensity, blank = 10; probe 21.3 μM, diethylamine 50 μM, 37° C., 10 minutes
Experimental: (§1) Moreover, in other conditions than those of the above-described tests, reactivity of all of the compounds 1a to 1d with H2O2, other various kinds of nucleophilic agents, reducing agents and the like also was tested, respectively. More specifically, fluorescent responses of 1a to 1d with respect to a XO-HPX system, a XO-HPX-SOD system, H2O2, ascorbic acid, 1,4-hydroquinone, propylamine, diethylamine, glucose, esterase, a cytochrome P450 reductase+NADPH system, and a diaphorase+NADH system were measured, respectively. Operational processes thereof will be described below. Firstly, 1a to 1d and the above-described reagents were dissolved in HEPES of 10 mM having a pH of 7.4 so as to prepare solutions, respectively. Next, a 96 wellmicroplate was provided, where any of the solutions of 1a to 1d (25 μM, 170 μL) was poured into each of the wells, and furthermore, 30 μL of a blank solution or 30 μL of the solution of the reagent to be reacted therewith was added thereto. Final concentrations of the solutions in the wells were adjusted so that concentrations of the solutions of 1a to 1d respectively could be 21.3 μM, that of XO could be 13.1 mU/mL, those of HPX, H2O2, ascorbic acid, 1,4-hydroquinone, propylamine, diethylamine, glucose, NADPH and NADH respectively could be 50 μM, that of cytochrome P450 reductase could be 68 mU/mL, that of diaphorase could be 65 mU/mL, and that of esterase could be 0.5 U/mL, respectively. Then, after they reacted in the wells at 37° C. for 10 minutes, fluorescent responses were measured respectively. Fluorescence intensity measurement was conducted by using an ETC-272 Peltier thermostatted single cell holder (trade name) manufactured by JASCO Corporation or a SpectraMax GeminiEM fluorescence plate reader (trade name) manufactured by Molecular Devices Corporation provided with a FP-750 spectrofluorometer (trade name) manufactured by JASCO Corporation, and by setting excitation wavelengths and emission wavelengths so that those of 1a, 1b and 1c respectively could be 485 nm and 515 nm, and those of 1d respectively could be 511 nm and 540 nm.

[2] = Fluorescent response to 1,4-hydroquinone (Table 1); format: biochemical; details: relative fluorescence intensity, blank = 10; probe 21.3 μM, 1,4-hydroquinone 50 μM, 37° C., 10 minutes
Experimental: as §1

[3] = Fluorescent response to XO-HPX system, 96-well microplate (Table 1); format: biochemical; details: relative fluorescence intensity, blank = 10, probe 21.3 μM, 10 minutes; for fluorescent response, XO—HPX: XO 13.1 mU/mL, HPX 50 μM, HEPES pH 7.4, 37° C.; for fluorescent response, XO—HPX—SOD: XO-HPX with SOD, 37° C.
Experimental: as §1

[4] = Fluorescent response to glucose (Table 1); format: biochemical; details: relative fluorescence intensity, blank = 10; probe 21.3 μM, glucose 50 μM, 37° C., 10 minutes
Experimental: as §1

[5] = Fluorescent response to ascorbic acid (Table 1); format: biochemical; details: relative fluorescence intensity, blank = 10; probe 21.3 μM, ascorbic acid 50 μM, 37° C., 10 minutes
Experimental: as §1

[6] = tested on: esterase; assay: Fluorescent response to esterase (Table 1); format: biochemical; details: relative fluorescence intensity, blank = 10; probe 21.3 μM, esterase 0.5 U/mL, 37° C., 10 minutes
Experimental: as §1

[7] = Fluorescent response to propylamine (Table 1); format: biochemical; details: relative fluorescence intensity, blank = 10; probe 21.3 μM, propylamine 50 μM, 37° C., 10 minutes
Experimental: as §1

[8] = Fluorescent response to H2O2 (Table 1); format: biochemical; details: relative fluorescence intensity, blank = 10; probe 21.3 μM, H2O2 50 μM, 37° C., 10 minutes
Experimental: as §1

[9] = Voltammetry measurement; format: physicochemical; details: CH3CN—H2O (3:1) containing Et4NClO4
[10] = Capability as superoxide-detecting fluorescent probe (reactivity with superoxide); format: biochemical; details: tested similarly to the compound 1d
Experimental: Then, by mainly using the compound 1d as a testing compound, the capability thereof as a superoxide-selective fluorescent probe was evaluated, and moreover, a test in a cell system also was conducted. These tests will be described below.
Thus, it is thought that each compound synthesized from a combination of: a phenolic colorant; and a 2,4-dinitrobenzenesulfonyl group, a 4-trifluoromethyl-2-nitrobenzenesulfonyl group or a 4-nitrobenzenesulfonyl group can be used as a superoxide-detecting fluorescent probe similarly. An example of the usage thereof will be shown in Scheme 8 below. Furthermore, it can be expected that a compound for a fluorescent probe having characteristics that are suitable for its application purpose can be designed and developed freely, by designing the compound of the present invention freely within the limitation defined by the general formula (I) and using the fluorescence mechanism developed by the inventors of the present invention, without being limited to the above-described combinations. Examples of the application purpose of the compound of the present invention are varied, including an application to a faintly coloring technique using superoxide.

[11] = Reactivity with superoxide and glutathione (FIG. 4); format: biochemical; details: for selectivity (specificity), superoxide versus glutathione, FIG. 4: same conditions as 1-3 Superoxide-selectivity (2)
Experimental: as §1
(§2) The reactivity of each of the compounds 1d, 5a, 6a, 7 and 8a with respect to superoxide and glutathione (GSH) that is a kind of thiol was tested under the same conditions as those of [1-3. Superoxide-selectivity (2)] in Example 1. […] A vertical axis thereof denotes a fluorescence intensity, which is represented in % of control.

[12] = Fluorescence response to thiophosphonate group (FIG. 8); format: biochemical; details: for response to thiol group in thiophosphonate group: γ-S-ATP and adenosine monothiophosphate (S-AMP); for sensitivity of γ-S-ATP detection relative to 8a: similar tests
Description: Moreover, a capability of the sulfonate compound of the present invention as a fluorescent probe for mercapto compounds other than thiol (a compound in which a —SH group is bonded to a carbon atom) was examined. […]

[13] = Responses to the compounds listed in Table 1; format: biochemical; details: same conditions as Example 1
Experimental: as §1, §2

[14] = tested on: neutrophils
Experimental: Moreover, a toxicity of the compound 1d with respect to the neutrophils was evaluated by estimating cell viability by a trypan blue dyeing method. More specifically, the neutrophils (1.0×10^5 cells) were incubated at 37° C. for 120 minutes in a glass test tube coated with human serum albumin, in the presence of both of the compound 1d (6.25 μM) and PMA (0.16 μM), in the presence of either of them, and in the absence of them, respectively. Then, cell viability after the incubation with respect to cell viability before the incubation was measured.

Compound: O=C1OC2(c3cc(F)c(OS(=O)(=O)c4ccc([N+](=O)[O-])cc4[N+](=O)[O-])cc3Oc3cc(OS(=O)(=O)c4ccc([N+](=O)[O-])cc4[N+](=O)[O-])c(F)cc32)c2ccccc21 [Compound 1c]
- fluorescent response, diethylamine [1]: 10
- fluorescent response, 1,4-hydroquinone [2]: 10
- fluorescent response, XO—HPX [3]: 797
- fluorescent response, XO—HPX—SOD [3]: 48
- fluorescent response, glucose [4]: 10
- fluorescent response, ascorbic acid [5]: 11
- fluorescent response, esterase [6]: 23
- fluorescent response, propylamine [7]: 10
- fluorescent response, H2O2 [8]: 11
- cathode response [9]: about −0.5 V vs SCE

Compound: O=c1cc(C(F)(F)F)c2ccc(OS(=O)(=O)c3ccc(C(F)(F)F)cc3[N+](=O)[O-])cc2o1 [Compound 6b]
- deprotection by superoxide into the corresponding fluorochrome [10]: deprotected by superoxide

Compound: O=C(O)c1ccccc1-c1c2cc(F)c(=O)c(F)c-2oc2c(F)c(OS(=O)(=O)c3ccc(C(F)(F)F)cc3[N+](=O)[O-])c(F)cc12 [Compound 4a]
- deprotection by superoxide into the corresponding fluorochrome [10]: deprotected by superoxide

Compound: O=C1OC2(c3cc(Cl)c(OS(=O)(=O)c4ccc([N+](=O)[O-])cc4[N+](=O)[O-])cc3Oc3cc(OS(=O)(=O)c4ccc([N+](=O)[O-])cc4[N+](=O)[O-])c(Cl)cc32)c2ccccc21 [Compound 1b]
- fluorescent response, diethylamine [1]: 10
- fluorescent response, 1,4-hydroquinone [2]: 11
- fluorescent response, XO—HPX [3]: 288
- fluorescent response, XO—HPX—SOD [3]: 22
- fluorescent response, glucose [4]: 10
- fluorescent response, ascorbic acid [5]: 11
- fluorescent response, esterase [6]: 20
- fluorescent response, propylamine [7]: 10
- fluorescent response, H2O2 [8]: 11
- cathode response [9]: about −0.5 V vs SCE

Compound: O=c1ccc2nc3ccc(OS(=O)(=O)c4ccc(C(F)(F)F)cc4[N+](=O)[O-])cc3oc-2c1 [Compound 5b]
- deprotection by superoxide into the corresponding fluorochrome [10]: deprotected by superoxide

Compound: Cc1cc(=O)oc2cc(OS(=O)(=O)c3ccc([N+](=O)[O-])cc3[N+](=O)[O-])ccc12 [Compound 7]
- selectivity (specificity), superoxide versus glutathione, FIG. 4 [11]: excellent mercapto compound-selectivity
- response to thiol group in thiophosphonate group [12]: responded to a thiol group in a so-called thiophosphonate group
- response with respect to each of the compounds listed in Table 1 [13]: almost no response

Compound: O=C1OC2(c3ccccc31)c1cc(F)c(OS(=O)(=O)c3ccc(C(F)(F)F)cc3[N+](=O)[O-])c(F)c1Oc1c2cc(F)c(OS(=O)(=O)c2ccc(C(F)(F)F)cc2[N+](=O)[O-])c1F [Compound 3]
- deprotection by superoxide into the corresponding fluorochrome [10]: deprotected by superoxide

Compound: Cc1c2oc3c(C)c(OS(=O)(=O)c4ccc([N+](=O)[O-])cc4[N+](=O)[O-])ccc3c(-c3ccccc3C(=O)O)c-2ccc1=O [Compound 8c]
- response to glutathione [11]: responded to glutathione with high sensitivity
- sensitivity of γ-S-ATP detection relative to 8a [12]: sensitivity still higher than that of 8a
- response with respect to each of the compounds listed in Table 1 [13]: almost no response

Compound: O=c1ccc2nc3ccc(OS(=O)(=O)c4ccc([N+](=O)[O-])cc4[N+](=O)[O-])cc3oc-2c1 [Compound 5a]
- selectivity (specificity), superoxide versus glutathione, FIG. 4 [11]: excellent mercapto compound-selectivity
- deprotection by superoxide into the corresponding fluorochrome [10]: deprotected by superoxide
- response to thiol group in thiophosphonate group [12]: responded to a thiol group in a so-called thiophosphonate group
- response with respect to each of the compounds listed in Table 1 [13]: almost no response

Compound: O=C1OC2(c3ccc(OS(=O)(=O)c4ccc([N+](=O)[O-])cc4[N+](=O)[O-])cc3Oc3cc(OS(=O)(=O)c4ccc([N+](=O)[O-])cc4[N+](=O)[O-])ccc32)c2ccccc21 [Compound 1a]
- fluorescent response, diethylamine [1]: 11
- fluorescent response, 1,4-hydroquinone [2]: 10
- fluorescent response, XO—HPX [3]: 70
- fluorescent response, XO—HPX—SOD [3]: 12
- fluorescent response, glucose [4]: 10
- fluorescent response, ascorbic acid [5]: 10
- fluorescent response, esterase [6]: 17
- fluorescent response, propylamine [7]: 10
- fluorescent response, H2O2 [8]: 10
- cathode response [9]: about −0.5 V vs SCE

Compound: O=C(O)c1ccccc1-c1c2cc(F)c(=O)c(F)c-2oc2c(F)c(OS(=O)(=O)c3ccc([N+](=O)[O-])cc3)c(F)cc12 [Compound 4b]
- deprotection by superoxide into the corresponding fluorochrome [10]: deprotected by superoxide

Compound: Cc1cc2c(-c3ccccc3C(=O)O)c3cc(C)c(=O)cc-3oc2cc1OS(=O)(=O)c1ccc([N+](=O)[O-])cc1[N+](=O)[O-] [Compound 8b]
- response to glutathione [11]: responded to glutathione with high sensitivity
- sensitivity of γ-S-ATP detection relative to 8a [12]: sensitivity still higher than that of 8a
- response with respect to each of the compounds listed in Table 1 [13]: almost no response

Compound: CCCCCCCCCCCCCC(=O)O[C@@H]1[C@@H](C)[C@@]2(O)[C@@H](C=C(CO)C[C@]3(O)C(=O)C(C)=C[C@@H]23)[C@@H]2C(C)(C)[C@]12OC(C)=O [PMA, phorbol myristate acetate, reference compound]
- toxicity with respect to the neutrophils ([14]; incubation of 120 minutes): did not show any significant toxicity
- cell viability after the incubation with respect to before the incubation ([14]; substance only (1d 6.25 μM or PMA 0.16 μM), 1.0×10^5 neutrophils, 37° C., 120 minutes): 93%
